Data: patent US20220041616A1, “SPIRO COMPOUND AND MEDICAL USES THEREOF” (The National Institutes of Pharmaceutical R&D Co., Ltd., priority 2018, published 2022)

Each compound was assayed against T1, ACC1 (Homo sapiens, UniProt Q13085) (assay: In vitro inhibition of ACC1 activity, ADP-Glo Kinase Analysis). Conditions: 1 nM ACC1, 10 μM acetyl-CoA, 20 μM ATP.
T1 construct: purchased BPS bioscience
Assay type: biochemical
From the text: ADP-Glo™ Kinase Analysis Kit (Promega) is used for the in vitro analysis of the inhibitory effect of the present compound on ACC1 or ACC2. ADP-Glo™ Kinase Analysis is a kinase detection analysis of luminescence method. ADP is produced in the process of catalyzing the substrate by ACC. ADP is converted into ATP which is then converted into light by Ultra-Glo™ luciferase. ADP is quantified by detecting the light signal, thus the enzyme activity can be measured by quantification of the ADP amount produced during the enzyme reaction. The analysis is carried out in two steps: in the first step, after the kinase reaction, a portion of ADP-Glo™ reagent equal in volume to the kinase reaction system is added to terminate the reaction and consume the remaining ATP; in the second step, a kinase detection reagent is added, which not only converts ADP into ATP, but also uses a coupled luciferase/luciferin reaction to detect newly synthesized ATP.
a. 10 mM compound stock solution (the present compound was dissolved in 100% DMSO to prepare the 10 mM stock solution) was diluted 50-fold to 200 μM with 100% DMSO, and then diluted in equal proportions (1:3) in a 96-well dilution plate (249944, Nunc). The gradient concentrations of the compound were 200 μM, 66.67 μM, 22.22 μM, 7.41 μM, 2.47 μM, 0.823 μM, 0.274 μM, 0.0914 μM, 0.0305 μM, 0.0102 μM, 0.00339 μM and 0.00113 μM.
b. 4.5 μL ACC1 working solution (BPS bioscience) (2.22 nM) was added to each well of a 384-well test plate (6007290, Perkin Elmer).
c. 0.5 μL of the serially diluted compound (prepared in step a) was added to each well of the 384-well test plate, which was centrifuged at 1000 rpm for 1 min and then incubated at room temperature for 15 min. The reaction system with compound GS-0976 at a final concentration of 0.1 μM was used as positive control; the reaction system with no compound but DMSO at a final concentration of 5% was used as negative control.
d. In the 384-well test plate (prepared in step c), 5 μL of the substrate working solution was added to each well to start the enzymatic reaction. The plate was centrifuged at 1000 rpm for 1 min and then incubated at room temperature for 30 min. The final concentration of each component in the ACC1 reaction system: 1 nM ACC1, 10 μM acetyl-CoA, 30 mM NaHCO3, and 20 μM ATP. The final concentration of each component in the ACC2 reaction system: 1.1 nM ACC2, 20 μM acetyl-CoA, 20 mM NaHCO3, and 15 μM ATP. Final concentrations of test compounds: 10 μM, 3.33 μM, 1.11 μM, 0.37 μM, 0.123 μM, 0.0411 μM, 0.0137 μM, 0.00457 μM, 0.00152 μM, 0.00051 μM, 0.00017 μM and 0.000056 μM. The final concentration of DMSO was 5% (v/v).
e. 10 μL of ADP-Glo reagent was added to each well of the 384-well test plate (prepared in step d), which was centrifuged at 1000 rpm for 1 min and then incubated at room temperature for 40 min.
f. 20 μL of kinase detection reagent was added to each well of the 384-well test plate (prepared in step e), which was centrifuged at 1000 rpm for 1 min and then incubated at room temperature for 40 min.
g. The chemiluminescence signal was detected with Perkin Elmer EnVision 2104.
ACC1 working solution and substrate working solution were both prepared with 1× kinase reaction buffer. The buffer was consisting of 50 mM HEPES buffer, 2 mM magnesium chloride, 0.01% BRIJ-35, 2 mM potassium citrate, 50 μg/mL BSA and 2 mM DTT.
The average value of the positive and negative control well and the standard deviation were calculated. The inhibition percentage was calculated according to the following formula: 100×[1−(compound−average value of positive control)/(average value of negative control-average value of positive control)].
IC50 of the compound was obtained using GraphPad Prism 6 software according to the following nonlinear fitting formula:
Y=Bottom+(Top−Bottom)/(1+10^((Log IC50−X)×Hillslope)), […]

Row | Compound | IC50 [nM]
1 | 7′-(2-(2-methoxyphenyl)-2-((tetrahydro-2H-pyran-4-yl)oxy)ethyl)-3′-methyl-2′-(oxazol-2-yl)-4′,6′-dioxo-6′,7′-dihydro-4′H-spiro[cyclohexane-1,5′-thieno[2,3-b]pyridine]-3-carboxylic Acid [Compound 7a] | > 500
2 | 7′-(2-(2-methoxyphenyl)-2-((tetrahydro-2H-pyran-4-yl)oxy)ethyl)-3′-methyl-2′-(oxazol-2-yl)-4′,6′-dioxo-6′,7′-dihydro-4′H-spiro[cyclohexane-1,5′-thieno[2,3-b]pyridine]-3-carboxylic Acid [Compound 7b] | 100 to 500
3 | Cc1c(-c2ncco2)sc2c1C(=O)C1(CCC(C(=O)O)C1)C(=O)N2CC(OC1CCOCC1)c1ccccc1 (mixture of isomers) [Compound 3, 3′-methyl-2′-(oxazol-2-yl)-4′,6′-dioxo-7′-(2-phenyl-2-((tetrahydro-2H-pyran-4-yl)oxy)ethyl)-6′,7′-dihydro-4′H-spiro[cyclopentane-1,5′-thieno[2,3-b]pyridine]-3-carboxylic Acid] | 100 to 500
4 | Cc1c(-c2ncco2)sc2c1C(=O)C1(CCC(C)(C(=O)O)C1)C(=O)N2CC(OC1CCOCC1)c1ccccc1 (mixture of isomers) [Compound 4, 3,3′-dimethyl-2′-(oxazol-2-yl)-4′,6′-dioxo-7′-(2-phenyl-2-((tetrahydro-2H-pyran-4-yl)oxy)ethyl)-6′,7′-dihydro-4′H-spiro[cyclopentane-1,5′-thieno[2,3-b]pyridine]-3-carboxylic Acid] | 100 to 500
5 | COc1ccccc1C(CN1C(=O)C2(CCC(C(=O)O)C2)C(=O)c2c1sc(-c1ncco1)c2C)OC1CCOCC1 (mixture of isomers) [Compound 5, 7′-(2-(2-methoxyphenyl)-2-((tetrahydro-2H-pyran-4-yl)oxy)ethyl)-3′-methyl-2′-(oxazol-2-yl)-4′,6′-dioxo-6′,7′-dihydro-4′H-spiro[cyclopentane-1,5′-thieno[2,3-b]pyridine]-3-carboxylic Acid] | < 10
6 | COc1ccccc1C(CN1C(=O)C2(CCC(C(=O)O)C2)C(=O)c2c1sc(-c1ncco1)c2C)OC1CCOCC1 (mixture of isomers) [Compound 5e, 7′-(2-(2-methoxyphenyl)-2-((tetrahydro-2H-pyran-4-yl)oxy)ethyl)-3′-methyl-2′-(oxazol-2-yl)-4′,6′-dioxo-6′,7′-dihydro-4′H-spiro[cyclopentane-1,5′-thieno[2,3-b]pyridine]-3-carboxylic Acid] | 10 to 100
7 | Cc1c(-c2ncco2)sc2c1C(=O)C1(CCC(C(=O)O)CC1)C(=O)N2CC(OC1CCOCC1)c1ccccc1 (mixture of isomers) [Compound 6, 3′-methyl-2′-(oxazol-2-yl)-4′,6′-dioxo-7′-(2-phenyl-2-((tetrahydro-2H-pyran-4-yl)oxy)ethyl)-6′,7′-dihydro-4′H-spiro[cyclohexane-1,5′-thieno[2,3-b]pyridine]-4-carboxylic acid] | 100 to 500
8 | Cc1c(-c2ncco2)sc2c1C(=O)C1(CCC1)C(=O)N2CC(OC1CCOCC1)c1ccccc1 (racemic) [Compound 1, 3′-methyl-2′-(oxazol-2-yl)-7′-(2-phenyl-2-((tetrahydro-2H-pyran-4-yl)oxy)ethyl)-4′H-spiro[cyclobutane-1,5′-thieno[2,3-b]pyridine]-4′,6′(7′H)-dione] | > 500
9 | COc1ccccc1C(CN1C(=O)C2(CCC(C(=O)O)C2)C(=O)c2c1sc(-c1ncco1)c2C)OC1CCOCC1 (single isomer, unassigned) [Compound 5a, 7′-(2-(2-methoxyphenyl)-2-((tetrahydro-2H-pyran-4-yl)oxy)ethyl)-3′-methyl-2′-(oxazol-2-yl)-4′,6′-dioxo-6′,7′-dihydro-4′H-spiro[cyclopentane-1,5′-thieno[2,3-b]pyridine]-3-carboxylic Acid] | 10 to 100
10 | COc1ccccc1C(CN1C(=O)C2(CCC(C(=O)O)C2)C(=O)c2c1sc(-c1ncco1)c2C)OC1CCOCC1 (single isomer, unassigned) [Compound 5c, 7′-(2-(2-methoxyphenyl)-2-((tetrahydro-2H-pyran-4-yl)oxy)ethyl)-3′-methyl-2′-(oxazol-2-yl)-4′,6′-dioxo-6′,7′-dihydro-4′H-spiro[cyclopentane-1,5′-thieno[2,3-b]pyridine]-3-carboxylic Acid] | < 10
11 | COc1ccccc1C(CN1C(=O)C2(CCC(C(=O)O)C2)C(=O)c2c1sc(-c1ncco1)c2C)OC1CCOCC1 (single isomer, unassigned) [Compound 5d, 7′-(2-(2-methoxyphenyl)-2-((tetrahydro-2H-pyran-4-yl)oxy)ethyl)-3′-methyl-2′-(oxazol-2-yl)-4′,6′-dioxo-6′,7′-dihydro-4′H-spiro[cyclopentane-1,5′-thieno[2,3-b]pyridine]-3-carboxylic Acid] | < 10
12 | COc1ccccc1C(CN1C(=O)C2(CC(C(=O)O)C2)C(=O)c2c1sc(-c1ncco1)c2C)OC1CCOCC1 (single isomer, unassigned) [Compound 8a, 7′-(2-(2-methoxyphenyl)-2-((tetrahydro-2H-pyran-4-yl)oxy)ethyl)-3′-methyl-2′-(oxazol-2-yl)-4′,6′-dioxo-6′,7′-dihydro-4′H-spiro[cyclobutane-1,5′-thieno[2,3-b]pyridine]-3-carboxylic Acid] | 10 to 100
13 | COc1ccccc1C(CN1C(=O)C2(CC(C(=O)O)C2)C(=O)c2c1sc(-c1ncco1)c2C)OC1CCOCC1 (single isomer, unassigned) [Compound 8b, 7′-(2-(2-methoxyphenyl)-2-((tetrahydro-2H-pyran-4-yl)oxy)ethyl)-3′-methyl-2′-(oxazol-2-yl)-4′,6′-dioxo-6′,7′-dihydro-4′H-spiro[cyclobutane-1,5′-thieno[2,3-b]pyridine]-3-carboxylic Acid] | 100 to 500
14 | Cc1c(-c2ncco2)sc2c1C(=O)C1(CCCC1)C(=O)N2CC(OC1CCOCC1)c1ccccc1 (centres unmarked) [Compound 2, 3′-methyl-2′-(oxazol-2-yl)-7′-(2-phenyl-2-((tetrahydro-2H-pyran-4-yl)oxy)ethyl)-4′H-spiro[cyclopentane-1,5′-thieno[2,3-b]pyridine]-4′,6′(7′H)-dione] | > 500
15 | CNC(=O)[C@H]1C[C@@]2(C1)C(=O)c1c(sc(-c3ncco3)c1C)N(C[C@H](OC1CCOCC1)c1ccccc1OC)C2=O [Compound 9] | < 10
16 | COc1ccccc1[C@H](CN1c2sc(-c3ncco3)c(C)c2C(=O)[C@]2(C[C@H](C(=O)NCC(=O)O)C2)C1=O)OC1CCOCC1 [Compound 10, ((1s,3S)-7′-((R)-2-(2-methoxyphenyl)-2-((tetrahydro-2H-pyran-4-yl)oxy)ethyl)-3′-methyl-2′-(oxazol-2-yl)-4′,6′-dioxo-6′,7′-dihydro-4′H-spiro[cyclobutane-1,5′-thieno[2,3-b]pyridine]-3-carbonyl)glycine] | < 10
17 | COC(=O)CNC(=O)[C@H]1C[C@@]2(C1)C(=O)c1c(sc(-c3ncco3)c1C)N(C[C@H](OC1CCOCC1)c1ccccc1OC)C2=O [Compound 10-1, methyl ((1s,3S)-7′-((R)-2-(2-methoxyphenyl)-2-((tetrahydro-2H-pyran-4-yl)oxy)ethyl)-3′-methyl-2′-(oxazol-2-yl)-4′,6′-dioxo-6′,7′-dihydro-4′H-spiro[cyclobutane-1,5′-thieno[2,3-b]pyridine]-3-carbonyl)glycinate] | < 10
